Assay results taken from article PMC9095875, “Solubility measurement and thermodynamic modeling of pantoprazole sodium sesquihydrate in supercritical carbon dioxide” (Scientific Reports, 2022).
“And” between values parts separate entries of the source, which are not always exact repeats. Equal entries are not always repeated. Marks after values point to notes of the source that are not given here.

Tests used:
[1] = Thermodynamic properties calculated from constants of the Chrastil, reformulated Chrastil and Bartle solubility models; assay type: physicochemical
Source text: It is the first solvate complex model and correlates solubility as a function of supercritical fluid density and temperature as:18 y2=ρ1^κ-1[…] where κ and E0-E1 are model constants. Since Eq. (13) is dimensionally inconsistent[24],[26],[39], it is dimensionally corrected and known as Reformulated […] model:19 y2=[…] where κ^' and E0-E1 are model constants. It is one of the successful empirical models and correlates solubility as a function of temperature, supercritical fluid density and total pressure as:20 […] where G0-G2 are model constants. From parameter G1 , the vaporization enthalpy is ΔvapH=-G1R in which R is universal gas constant. The new solution model proposed in this work has three adjustable parameters ( ΔCp , a11 and a22 ). For regression, these parameters are treated as temperature dependent and temperature independent. Although conceptually, these parameters are temperature dependent[43],[44], however, in literature, these parameters are handled as temperature independent over a small temperature range[45]. Therefore, both temperature dependent and independent results are reported in this study. For regression, melting temperature and molar volume of pantoprazole sodium sesquihydrate are needed. The required melting temperature is obtained from the material's source and the molar volume of the solid pantoprazole sodium sesquihydrate is calculated using Immirzi and […] method. […] The proposed model correlates the data less than 14.9% and 16.23% in terms of AARD% for temperature dependent and independent cases, respectively. […] The correlations of the solubility data with temperature dependent parameters are better than temperature independent parameters. […], Sodeifian et al., and […] models correlate the solubility data. The correlations of the data are quite satisfactory for […] model compared to […] and Sodeifian models. From the conventional model constants, the thermodynamic properties, namely total heat of enthalpy of vaporization and solvation are calculated and reported in Table 6. […]

[2] = Solubility of solid drug in supercritical carbon dioxide (isobaric-isothermal method, UV-Vis at 290 nm); assay type: physicochemical; conditions: for y2 × 10^4 (mole fraction): value is y2 × 10^4
Description: The method utilized is considered as the isobaric-isothermal method. Each measurement is performed with high precision, during experiments; temperature is maintained at desired value within ± 0.1 K. A known amount of pantoprazole sodium sesquihydrate drug (solute) has been used in the equilibrium cell to measure the solubility data. The capacity of the cell is 70 mL. A magnetic stirrer was mounted with the cell to measure the solubility data. A magnetic stirrer that is mounted with the equilibrium cell helps in attaining equilibrium between the solute and the ScCO2. To confirm equilibrium attainment, the experiments are done with a fresh sample at specified temperature and pressure at various time intervals (5 min, 10 min, 20 min, 30 min, 40 min, 50 min and 60 min) and the solubility readings are recorded. It is observed that the solubility is independent of time after 30 min. Thus, for correct results after 60 min, samples are considered for analysis. After equilibrium, 600 μL of a saturated sample is collected in dematerialized water (DM water's conductivity is 1μS/cm) via a 6-way port, two-status valve. More details are readily available elsewhere[30],[31]. This experimental setup has already been validated in the previous work with alpha-tocopherol and naphthalene. Each experiment is carried out in triplicate. Spectrophotometer (UV-Visible, Model UNICO-4802) is utilized to quantify the pantoprazole sodium sesquihydrate solubility. The drug test samples were prepared by dissolving known weights of drug in known volume of DM water. Pantoprazole sodium sesquihydrate samples were analyzed at 290 nm and calibrations curve was established, indicating R^2 of 0.99. The following sets of equations are used to calculate equilibrium mole fraction, y2, and solubility, S (g/L), in ScCO2:1 y2=nsolute/nsolute+nCO2, where:2 […]/mol,and 3 […]/mol 4 […]) where nsolute and nCO2 are moles of solute (Pantoprazole sodium sesquihydrate) and CO2 in the sampling loop, respectively, Cs is the solute concentration (g/L), Ms and MCO2 are molecular weights of the solute and CO2 and S (g/L) is the equilibrium solubility.

COc1ccnc(C[S+]([O-])c2nc3ccc(OC(F)F)cc3[nH]2)c1OC (stereo not shown) [pantoprazole sodium sesquihydrate, Pantoprazole sodium sesquihydrate]
Enthalpy of solvation, ΔHsol ([1]; Bartle et al. and Chrastil models combination (difference of ΔHvap and ΔHtotal)): −15.829 kJ/mol and −15.829^d kJ/mol
Enthalpy of vaporization ΔHvap ([1]; from Bartle et al. model (ΔvapH = −G1R)): ~75.261^c (approximate value) kJ/mol
Total enthalpy, ΔHtotal ([1]; from Reformulated Chrastil model): 39.832^b kJ/mol
y2 × 10^4 (mole fraction) ([2]; in ScCO2, 308 K, 12 MPa, ScCO2 density 769 kg/m^3): 0.0648 mole fraction
y2 × 10^4 (mole fraction) ([2]; in ScCO2, 308 K, 15 MPa, ScCO2 density 817 kg/m^3): 0.0764 mole fraction
y2 × 10^4 (mole fraction) ([2]; in ScCO2, 308 K, 18 MPa, ScCO2 density 849 kg/m^3): 0.0921 mole fraction
y2 × 10^4 (mole fraction) ([2]; in ScCO2, 308 K, 21 MPa, ScCO2 density 875 kg/m^3): 0.0958 mole fraction
y2 × 10^4 (mole fraction) ([2]; in ScCO2, 308 K, 24 MPa, ScCO2 density 896 kg/m^3): 0.1239 mole fraction
y2 × 10^4 (mole fraction) ([2]; in ScCO2, 308 K, 27 MPa, ScCO2 density 914 kg/m^3): 0.1489 mole fraction
y2 × 10^4 (mole fraction) ([2]; in ScCO2, 318 K, 12 MPa, ScCO2 density 661 kg/m^3): 0.0548 mole fraction
y2 × 10^4 (mole fraction) ([2]; in ScCO2, 318 K, 15 MPa, ScCO2 density 744 kg/m^3): 0.0580 mole fraction
y2 × 10^4 (mole fraction) ([2]; in ScCO2, 318 K, 18 MPa, ScCO2 density 791 kg/m^3): 0.0990 mole fraction
y2 × 10^4 (mole fraction) ([2]; in ScCO2, 318 K, 21 MPa, ScCO2 density 824 kg/m^3): 0.1192 mole fraction
y2 × 10^4 (mole fraction) ([2]; in ScCO2, 318 K, 24 MPa, ScCO2 density 851 kg/m^3): 0.1436 mole fraction
y2 × 10^4 (mole fraction) ([2]; in ScCO2, 318 K, 27 MPa, ScCO2 density 872 kg/m^3): 0.1930 mole fraction
y2 × 10^4 (mole fraction) ([2]; in ScCO2, 328 K, 12 MPa, ScCO2 density 509 kg/m^3): 0.0381 mole fraction
y2 × 10^4 (mole fraction) ([2]; in ScCO2, 328 K, 15 MPa, ScCO2 density 656 kg/m^3): 0.0498 mole fraction
y2 × 10^4 (mole fraction) ([2]; in ScCO2, 328 K, 18 MPa, ScCO2 density 725 kg/m^3): 0.1388 mole fraction
y2 × 10^4 (mole fraction) ([2]; in ScCO2, 328 K, 21 MPa, ScCO2 density 769 kg/m^3): 0.1579 mole fraction
y2 × 10^4 (mole fraction) ([2]; in ScCO2, 328 K, 24 MPa, ScCO2 density 802 kg/m^3): 0.2354 mole fraction
y2 × 10^4 (mole fraction) ([2]; in ScCO2, 328 K, 27 MPa, ScCO2 density 829 kg/m^3): 0.3106 mole fraction
y2 × 10^4 (mole fraction) ([2]; in ScCO2, 338 K, 12 MPa, ScCO2 density 388 kg/m^3): 0.0301 mole fraction
y2 × 10^4 (mole fraction) ([2]; in ScCO2, 338 K, 15 MPa, ScCO2 density 557 kg/m^3): 0.0403 mole fraction
y2 × 10^4 (mole fraction) ([2]; in ScCO2, 338 K, 18 MPa, ScCO2 density 652 kg/m^3): 0.1548 mole fraction
y2 × 10^4 (mole fraction) ([2]; in ScCO2, 338 K, 21 MPa, ScCO2 density 710 kg/m^3): 0.1938 mole fraction
y2 × 10^4 (mole fraction) ([2]; in ScCO2, 338 K, 24 MPa, ScCO2 density 751 kg/m^3): 0.3408 mole fraction
y2 × 10^4 (mole fraction) ([2]; in ScCO2, 338 K, 27 MPa, ScCO2 density 783 kg/m^3): 0.4634 mole fraction
cross over pressure ([2]; solubility isotherms 308-338 K in ScCO2, from Fig. 2): around 16.0 MPa
